Results reported in patent US20030073618A1, “Compounds comprising disulfide-containing peptides and nitrogenous bases, and medical uses thereof” (priority 2001, published 2003).
Read-outs that look alike come from different tables or passages of the source.

Experiments:
[1] = system: mycobacterium tuberculosis; conditions: for CD4+ / CD4/CD8 / CD8+ / IL-1 / IL-4 / IL-6 / IL-8 / IL-12 / Lymphocytes: blood immune test; for ESR / Erythrocytes / Hemoglobin / Leukocytes / Monocytes / Platelets / Segmented neutrophils / Stab neutrophils: general blood test
HIV = type: in vivo; parameters: Hemoglobin / Platelets / Leukocytes / ESR: unit not given beside the values; (CD25+) / HLA-DR / (CD16) / IgA / IgM / IgG / CIC / (CD20+) / CD4+ / CD8+: unit not given here; conditions: for Lymphocyte count / Weight gained / Karnovsky score: Ex. 13; for Karnovsky score: on admission 75; for Erythrocytes / Hemoglobin / Leukocytes / Monocytes / Platelets / Segmented neutrophils / Stab neutrophils / ESR: general blood test; for (CD16) / (CD20+) / (CD25+) / CD4+ / CD4/CD8 / CD8+ / CIC / HLA-DR / IgA / IgG / IgM: immune blood test
[2] = Ex. 16, on treatment completion

N[C@@H](CCC(=O)N[C@@H](CSSC[C@H](NC(=O)CC[C@H](NP(=O)(O)OC[C@H]1O[C@@H](n2cnc3c(=O)[nH]cnc32)[C@H](O)[C@@H]1O)C(=O)O)C(=O)NCC(=O)[O-])C(=O)NCC(=O)[O-])C(=O)O.[Li+].[Li+] [Li2-GSSG-IMP]
Karnovsky score ([1]; Ex. 16, in 2 months): 75 | Temperature ([1]; Ex. 16, in 2 months, on admission 37.5): 36.7 °C | Weight gained ([1]; Ex. 16, in a month): 4 kg | Karnovsky score ([1]; Ex. 16, in a month, on admission 50, with antibacterial therapy): 70 | Bacterial discharge, in the vision field by microscopy ([1]; Ex. 16, in a month, on admission up to 100): 2-4 | Karnovsky score [1, 2]: 90 | Temperature [1, 2]: 36.6 °C | X-ray, destruction cavity ([1]; Ex. 16, on treatment completion, on admission 4×3 cm): destruction cavity in the left lung upper lobe healed

N[C@@H](CCC(=O)N[C@@H](CSSC[C@H](NC(=O)CC[C@H](NP(=O)(O)OC[C@H]1O[C@@H](n2cnc3c(=O)[nH]cnc32)[C@H](O)[C@@H]1O)C(=O)O)C(=O)NCC(=O)[O-])C(=O)NCC(=O)[O-])C(=O)O.[Li+].[Li+] [Example 16]
CD4+ ([1]; 19.12.98): 860 | CD4/CD8 ([1]; 19.12.98): 1.53 | CD8+ ([1]; 19.12.98): 563 | IL-1 ([1]; 19.12.98): 46 | IL-4 ([1]; 19.12.98): 37 | IL-6 ([1]; 19.12.98): 44 | IL-8 ([1]; 19.12.98): 50 | IL-12 ([1]; 19.12.98): 39 | Lymphocytes ([1]; 19.12.98): 1400 | CD4+ ([1]; 20.10.98): 199 | CD4/CD8 ([1]; 20.10.98): 0.56 | CD8+ ([1]; 20.10.98): 357 | IL-1 ([1]; 20.10.98): 22 | IL-4 ([1]; 20.10.98): 32 | IL-6 ([1]; 20.10.98): 16 | IL-8 ([1]; 20.10.98): 23 | IL-12 ([1]; 20.10.98): 14 | Lymphocytes ([1]; 20.10.98): 832 | CD4+ ([1]; 21.01.99): 892 | CD4/CD8 ([1]; 21.01.99): 1.50 | CD8+ ([1]; 21.01.99): 594 | IL-1 ([1]; 21.01.99): 39 | IL-4 ([1]; 21.01.99): 34 | IL-6 ([1]; 21.01.99): 39 | IL-8 ([1]; 21.01.99): 48 | IL-12 ([1]; 21.01.99): 47 | Lymphocytes ([1]; 21.01.99): 1680 | CD4+ ([1]; 21.11.98): 527 | CD4/CD8 ([1]; 21.11.98): 1.25 | CD8+ ([1]; 21.11.98): 422 | IL-1 ([1]; 21.11.98): 29 | IL-4 ([1]; 21.11.98): 30 | IL-6 ([1]; 21.11.98): 29 | IL-8 ([1]; 21.11.98): 45 | IL-12 ([1]; 21.11.98): 28 | Lymphocytes ([1]; 21.11.98): 1350 | ESR ([1]; 19.12.98): 13 | Erythrocytes ([1]; 19.12.98): 4.3 | Hemoglobin ([1]; 19.12.98): 132 | Leukocytes ([1]; 19.12.98): 5.2 | Monocytes ([1]; 19.12.98): 2 | Platelets ([1]; 19.12.98): 230 | Segmented neutrophils ([1]; 19.12.98): 51 | Stab neutrophils ([1]; 19.12.98): 1 | ESR ([1]; 20.10.98): 50 | Erythrocytes ([1]; 20.10.98): 3.7 | Hemoglobin ([1]; 20.10.98): 108 | Leukocytes ([1]; 20.10.98): 9.9 | Monocytes ([1]; 20.10.98): 12 | Platelets ([1]; 20.10.98): 260 | Segmented neutrophils ([1]; 20.10.98): 57 | Stab neutrophils ([1]; 20.10.98): 12 | ESR ([1]; 21.01.99): 11 | Erythrocytes ([1]; 21.01.99): 4.2 | Hemoglobin ([1]; 21.01.99): 128 | Leukocytes ([1]; 21.01.99): 6.8 | Monocytes ([1]; 21.01.99): 5 | Platelets ([1]; 21.01.99): 210 | Segmented neutrophils ([1]; 21.01.99): 50 | Stab neutrophils ([1]; 21.01.99): 3 | ESR ([1]; 21.11.98): 27 | Erythrocytes ([1]; 21.11.98): 4.2 | Hemoglobin ([1]; 21.11.98): 128 | Leukocytes ([1]; 21.11.98): 5.2 | Monocytes ([1]; 21.11.98): 4 | Platelets ([1]; 21.11.98): 210 | Segmented neutrophils ([1]; 21.11.98): 53 | Stab neutrophils ([1]; 21.11.98): 6

Cc1cn([C@H]2C[C@H](O)[C@@H](COP(=O)(O)N[C@@H](CCC(=O)N[C@@H](CSSC[C@H](NC(=O)CC[C@H](N)C(=O)O)C(=O)NCC(=O)[O][Zn])C(=O)NCC(=O)[O][Zn])C(=O)O)O2)c(=O)[nH]c1=O [Zn2-GSSG-TMP]
Viral load (HIV; 1-month treatment): 66000 copies of HIV RNA/ml | Lymphocyte count (HIV; after 1-month treatment): 1276 | Weight gained (HIV; after 1-month treatment): 1.8 kg | Karnovsky score (HIV; after 1-month treatment): 80 | Lymphocyte count (HIV; after completion of treatment): 2295 | Weight gained (HIV; after completion of treatment): 2.5 kg | Karnovsky score (HIV; after completion of treatment): 90 | Viral load (HIV; Initial value): 80000 copies of HIV RNA/ml | Viral load (HIV; Treatment completion): 15000 copies of HIV RNA/ml | Erythrocytes (HIV; 01.04.96): 3.9 | Hemoglobin (HIV; 01.04.96): 126 | Leukocytes (HIV; 01.04.96): 3.5 | Monocytes (HIV; 01.04.96): 2 | Platelets (HIV; 01.04.96): 180 | Segmented neutrophils (HIV; 01.04.96): 41 | Stab neutrophils (HIV; 01.04.96): 3 | ESR (HIV; 03.04.96): 21 | Erythrocytes (HIV; 03.04.96): 3.9 | Hemoglobin (HIV; 03.04.96): 125 | Leukocytes (HIV; 03.04.96): 2.6 | Monocytes (HIV; 03.04.96): 7 | Platelets (HIV; 03.04.96): 170 | Segmented neutrophils (HIV; 03.04.96): 47 | Stab neutrophils (HIV; 03.04.96): 8 | ESR (HIV; 13.03.96): 18 | Erythrocytes (HIV; 13.03.96): 5 | Hemoglobin (HIV; 13.03.96): 160 | Leukocytes (HIV; 13.03.96): 2.4 | Monocytes (HIV; 13.03.96): 2 | Platelets (HIV; 13.03.96): 200 | Segmented neutrophils (HIV; 13.03.96): 48 | Stab neutrophils (HIV; 13.03.96): 5 | ESR (HIV; 15.05.96): 12 | Erythrocytes (HIV; 15.05.96): 4.2 | Hemoglobin (HIV; 15.05.96): 136 | Leukocytes (HIV; 15.05.96): 4.5 | Monocytes (HIV; 15.05.96): 3 | Platelets (HIV; 15.05.96): 190 | Segmented neutrophils (HIV; 15.05.96): 49 | Stab neutrophils (HIV; 15.05.96): 7 | ESR (HIV; 16.04.96): 20 | Erythrocytes (HIV; 16.04.96): 4 | Hemoglobin (HIV; 16.04.96): 129 | Leukocytes (HIV; 16.04.96): 2.9 | Monocytes (HIV; 16.04.96): 2 | Platelets (HIV; 16.04.96): 180 | Segmented neutrophils (HIV; 16.04.96): 45 | Stab neutrophils (HIV; 16.04.96): 8 | ESR (HIV; 28.03.96): 16 | Erythrocytes (HIV; 28.03.96): 4.3 | Hemoglobin (HIV; 28.03.96): 136 | Leukocytes (HIV; 28.03.96): 2.9 | Monocytes (HIV; 28.03.96): 2 | Segmented neutrophils (HIV; 28.03.96): 35 | Stab neutrophils (HIV; 28.03.96): 4 | (CD16) (HIV; 03.04.96): 198 | (CD20+) (HIV; 03.04.96): 217 | (CD25+) (HIV; 03.04.96): 207 | CD4+ (HIV; 03.04.96): 247 | CD4/CD8 (HIV; 03.04.96): 0.89 | CD8+ (HIV; 03.04.96): 277 | CIC (HIV; 03.04.96): 0.175 | HLA-DR (HIV; 03.04.96): 237 | IgA (HIV; 03.04.96): 2.1 | IgG (HIV; 03.04.96): 20 | IgM (HIV; 03.04.96): 4.6 | (CD16) (HIV; 13.03.96): 216 | (CD20+) (HIV; 13.03.96): 256 | (CD25+) (HIV; 13.03.96): 226 | CD4+ (HIV; 13.03.96): 276 | CD4/CD8 (HIV; 13.03.96): 0.78 | CD8+ (HIV; 13.03.96): 354 | CIC (HIV; 13.03.96): 0.09 | HLA-DR (HIV; 13.03.96): 354 | IgA (HIV; 13.03.96): 1.8 | IgG (HIV; 13.03.96): 18.8 | IgM (HIV; 13.03.96): 2.6 | (CD16) (HIV; 15.05.96): 505 | (CD20+) (HIV; 15.05.96): 390 | (CD25+) (HIV; 15.05.96): 482 | CD4+ (HIV; 15.05.96): 574 | CD4/CD8 (HIV; 15.05.96): 0.96 | CD8+ (HIV; 15.05.96): 597 | CIC (HIV; 15.05.96): 0.075 | HLA-DR (HIV; 15.05.96): 665 | IgA (HIV; 15.05.96): 1.5 | IgG (HIV; 15.05.96): 28 | IgM (HIV; 15.05.96): 3.1 | (CD16) (HIV; 17.04.96): 332 | (CD20+) (HIV; 17.04.96): 306 | (CD25+) (HIV; 17.04.96): 332 | CD4+ (HIV; 17.04.96): 319 | CD4/CD8 (HIV; 17.04.96): 0.86 | CD8+ (HIV; 17.04.96): 370 | CIC (HIV; 17.04.96): 0.11 | HLA-DR (HIV; 17.04.96): 434 | IgA (HIV; 17.04.96): 1.6 | IgG (HIV; 17.04.96): 24 | IgM (HIV; 17.04.96): 5.2
